According to the supplement of paper PMC10307832:

How the values were obtained:
Assay in all cases: relative viability (nuclei count vs DMSO), 5 days (fraction); higher = more cells survive
BI-2536 + Trametinib = compound: CC[C@@H]1C(=O)N(C)c2cnc(Nc3ccc(C(=O)NC4CCN(C)CC4)cc3OC)nc2N1C1CCCC1 [BI-2536] + CC(=O)Nc1cccc(-n2c(=O)n(C3CC3)c(=O)c3c(Nc4ccc(I)cc4F)n(C)c(=O)c(C)c32)c1 [Trametinib] (partner 0.02 µM)
Outline: (§1)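 Five library-drug doses in √10 steps were combined with a fixed anchor-drug dose, or a single drug was given alone, by pin tool to lung cancer cell lines in 1536-well plates the day after seeding. Nuclei were stained and counted after 5 days. Relative viability is the nuclei count in treated wells over that in vehicle wells, taken as the median of duplicate plates.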

BI-2536 + AZD7762 = compound: CC[C@@H]1C(=O)N(C)c2cnc(Nc3ccc(C(=O)NC4CCN(C)CC4)cc3OC)nc2N1C1CCCC1 [BI-2536] + NC(=O)Nc1cc(-c2cccc(F)c2)sc1C(=O)N[C@H]1CCCNC1 [AZD7762] (partner 0.2 µM)
Outline: as §1

[1] = compound: CC1CC(=O)N(C2=CN=C(N=C2N1C3CCCC3)NC4=C(C=C(C=C4)C(=O)NC5CCN(CC5)C)OC)C [NPK76-II-72-1] + Nc1ncn([C@H]2C[C@H](O)[C@@H](CO)O2)c(=O)n1 [Decitabine] (partner 2 µM)
Outline: as §1

[2] = compound: CC1CC(=O)N(C2=CN=C(N=C2N1C3CCCC3)NC4=C(C=C(C=C4)C(=O)NC5CCN(CC5)C)OC)C [NPK76-II-72-1] + CS(=O)(=O)N1CCN(Cc2cc3nc(-c4cccc5[nH]ncc45)nc(N4CCOCC4)c3s2)CC1 [Pictilisib] (partner 1 µM)
Outline: as §1

| Cell Line | relative viability (BI-2536 + Trametinib; first compound 0.01 µM) | relative viability (BI-2536 + Trametinib; first compound 0.03162 µM) | relative viability (BI-2536 + Trametinib; first compound 0.1 µM) | relative viability (BI-2536 + Trametinib; first compound 0.3162 µM) | relative viability (BI-2536 + Trametinib; first compound 1 µM) | relative viability (BI-2536 + AZD7762; first compound 0.01 µM) | relative viability (BI-2536 + AZD7762; first compound 0.03162 µM) | relative viability (BI-2536 + AZD7762; first compound 0.1 µM) | relative viability (BI-2536 + AZD7762; first compound 0.3162 µM) | relative viability (BI-2536 + AZD7762; first compound 1 µM) | relative viability ([1]; first compound 0.01 µM) | relative viability ([1]; first compound 0.03162 µM) | relative viability ([1]; first compound 0.1 µM) | relative viability ([1]; first compound 0.3162 µM) | relative viability ([1]; first compound 1 µM) | relative viability ([2]; first compound 0.01 µM) | relative viability ([2]; first compound 0.03162 µM) | relative viability ([2]; first compound 0.1 µM) | relative viability ([2]; first compound 0.3162 µM) | relative viability ([2]; first compound 1 µM) |
| --- | --- | --- | --- | --- | --- | --- | --- | --- | --- | --- | --- | --- | --- | --- | --- | --- | --- | --- | --- | --- |
| 201T | 0.717 | 0.741 | 0.745 | 0.253 | 0.252 | 0.609 | 0.647 | 0.588 | 0.33 | 0.255 | 0.818 | 0.87 | 0.906 | 0.887 | 0.886 | 0.642 | 0.618 | 0.66 | 0.7 | 0.677 |
| A549 | – | – | – | – | – | – | – | – | – | – | 0.429 | 0.332 | 0.327 | 0.233 | 0.312 | 0.469 | 0.509 | 0.535 | 0.529 | 0.572 |
| A-427 | 0.733 | 0.662 | 0.605 | 0.184 | 0.189 | 0.728 | 0.867 | 0.436 | 0.195 | 0.173 | 0.547 | 0.592 | 0.611 | 0.541 | 0.574 | 0.747 | 0.796 | 0.685 | 0.632 | 0.706 |
| ABC-1 | – | – | – | – | – | 0.576 | 0.871 | – | 0.922 | 0.301 | 0.94 | 1 | 0.859 | 1.13 | 0.887 | 0.638 | 0.8 | 0.483 | 0.678 | 0.743 |
| BEN | 1.05 | 0.813 | 0.959 | 0.515 | 0.435 | 0.67 | 0.711 | 0.521 | 0.419 | 0.396 | 0.661 | 0.713 | 0.671 | 0.743 | 0.76 | 0.526 | 0.551 | 0.526 | 0.606 | 0.55 |
| CAL-12T | 0.344 | 0.338 | 0.383 | 0.147 | 0.157 | 0.608 | 0.712 | 0.619 | 0.177 | 0.187 | – | – | – | – | – | 0.448 | 0.39 | 0.42 | – | 0.453 |
| COR-L23 | 0.579 | 0.582 | 0.394 | 0.0573 | 0.0949 | – | – | – | – | – | 0.423 | 0.473 | 0.469 | 0.384 | 0.454 | 0.742 | 0.895 | 0.831 | 0.763 | 0.869 |
| COR-L 105 | 0.463 | 0.454 | 0.394 | 0.267 | 0.297 | – | – | – | – | – | 0.622 | 0.65 | 0.448 | 0.616 | 0.69 | 0.424 | 0.467 | 0.423 | 0.411 | 0.451 |
| Calu-6 | – | – | – | – | – | – | – | – | – | – | – | – | – | – | – | 0.894 | 1.01 | 0.953 | 0.757 | 1.05 |
| ChaGo-K-1 | 0.9 | 0.875 | 0.733 | 0.181 | 0.202 | 0.828 | 0.854 | 0.644 | 0.241 | 0.202 | 0.487 | 0.52 | 0.475 | 0.512 | 0.501 | 0.736 | 0.642 | 0.685 | 0.686 | 0.367 |
| EBC-1 | – | – | – | – | – | – | – | – | – | – | – | – | – | – | – | 0.404 | 0.432 | 0.536 | 0.347 | 0.456 |
| EKVX | 0.313 | 0.343 | 0.379 | 0.155 | 0.151 | 0.613 | 0.877 | 0.63 | 0.614 | 0.276 | 0.329 | 0.353 | 0.34 | – | 0.387 | 0.418 | 0.437 | 0.437 | 0.388 | 0.508 |
| EMC-BAC-2 | 0.854 | 0.851 | 0.819 | 0.303 | 0.277 | 1.05 | 1.21 | 0.777 | 0.269 | 0.277 | 0.978 | 1.01 | 0.986 | 0.969 | 1.08 | 0.488 | 0.6 | 0.558 | 0.566 | 0.544 |
| EPLC-272H | 0.286 | 0.261 | 0.191 | 0.12 | 0.166 | 0.198 | 0.231 | 0.0832 | 0.0551 | 0.0884 | 0.407 | 0.387 | 0.371 | 0.379 | 0.37 | 0.31 | 0.31 | 0.32 | 0.296 | 0.381 |
| H3255 | 0.571 | 0.582 | 0.294 | 0.281 | 0.424 | 0.951 | 0.728 | 0.66 | 0.228 | 0.298 | 0.622 | 0.58 | 0.614 | – | 0.688 | 0.449 | 0.449 | 0.476 | 0.251 | 0.481 |
| HARA | 0.765 | 0.971 | 0.545 | 0.0894 | 0.156 | 0.325 | 0.424 | 0.167 | 0.158 | 0.137 | 0.643 | 0.57 | 0.616 | – | 0.451 | 0.371 | 0.368 | 0.46 | 0.26 | 0.377 |
| HCC-15 | 0.389 | 0.319 | 0.364 | 0.128 | 0.125 | 0.653 | 0.966 | 1.03 | 0.156 | 0.149 | 0.559 | 0.675 | 0.638 | 0.682 | 0.671 | 0.704 | 0.778 | 0.706 | 0.748 | 0.786 |
| HCC-44 | 1.04 | 1.04 | 1.03 | 0.323 | 0.275 | 1.08 | 1.06 | 0.978 | 0.655 | 0.361 | 0.991 | 1.08 | 0.931 | 0.922 | 0.968 | 0.542 | 0.911 | 0.624 | 0.587 | 0.685 |
| HCC-78 | 0.829 | 0.837 | 0.814 | 0.562 | 0.246 | 0.75 | 0.576 | 0.687 | 0.433 | 0.249 | 0.711 | 0.696 | 0.549 | 0.699 | 0.653 | – | 0.233 | 0.207 | – | 0.182 |
